Assay results published in patent publication US7432342B2, “Kinase anchor protein muteins, peptides thereof and related documents” (Sequenom, Inc., priority 2002, dated 2008).
Entries after “also recorded” stand apart in the source; their conditions may differ. Peptide text beside a SMILES is read from it. * marks the point of attachment. X1 = CN(C)c1ccc2c(c1)Oc1cc(N(C)C)ccc1C21OC(=O)c2cc(N3C(=O)CC(*)C3=O)ccc21

How the values were obtained:
[1] = target: T1, full-length RIIα (Mus musculus, UniProt P12367); assay: Fluorescence anisotropy binding assay (Example 9); parameters: species or system murine; conditions: compared with the unsubstituted peptide
T1 construct: Full-length murine RIIα was expressed in E. coli BL21 (DE3); made in house; host or cells: E. coli BL21 (DE3)
Experimental: (§1) Each peptide was fluorescently labeled using a 25 mM solution of tetramethylrhodamine-5-maleimide (catalog number T-6027; Molecular Probes, Eugene, Oreg.) dissolved in DMSO. The peptides were labeled by incubating with a three-fold molar excess of the label for 16 hr at 4° C. in 20 mM Tris, pH 7.0 and 1 mM tris-(2-carboxyethyl) phosphine, hydrochloride (TCEP) (non-thiol reducing agent, Molecular Probes). The sample was quenched with 1 mM, β-mercaptoethanol to bind to any unreacted maleimide and diluted with 0.1% TFA for purification by HPLC. The labeled peptides were resolved using a C18 column with a water/acetonitrile gradient containing 0.1% TFA. The concentration of each peptide was determined by absorbance at 541 nm after diluting into 100% methanol and using an extinction coefficient of 91,000 M^−1 cm^−1 for absorbance of the rhodamine label at 541 nm (Molecular Probes Catalog). The peptides were stored at 4° C. in 50% acetonitrile.
(§2) Full-length murine RIIα was expressed in E. coli BL21 (DE3). Full-length bovine RIα was expressed in E. coli 222. The proteins were purified as previously described using a cAMP affinity resin (Hamuro et al. (2002) J. Mol. Biol., 321:703). The protein concentrations were determined using the following extinction coefficients at 280 nm, which were calculated using a standard concentration of protein calibrated using quantitative amino acid analysis: RIα 52,603 M^−1 cm^−1 and RIIα 62,456 M^−1 cm^−1. The proteins were stored at 4° C. in 50 mM MES pH 5.8, 50 mM NaCl, 2 mM EDTA, 2 mM EGTA, 2 mM DTT.
(§3) Binding of each fluorescently labeled peptide to the regulatory subunits was monitored using fluorescence anisotropy. RIα and RIIα were serially diluted beginning at 1 μM and 0.1 μM, respectively, into 10 mM HEPES pH 7.4, 0.15 M NaCl, 3 mM EDTA, 0.005% Surfactant P20 (Biacore) containing either 10 nM or 1 nM of fluorescently labeled peptide for RIα and RIIα, respectively. The samples were equilibrated for at least 1 hour at room temperature and fluorescence anisotropy monitored using a Fluoromax-2 (Jobin Yvon Horiba, SPEX Division, Edison, N.J.) equipped with Glan-Thompson polarizers. The rhodamine-labeled peptide was excited at 541 nm (5-10 nm bandpass) and emission monitored at 575 nm (5-10 nm bandpass). The anisotropy was calculated directly with the Fluoromax software using the following equation: r=(IVV−G*IVH)/(IVV+2G*IVH) (1) where r is the steady state anisotropy, IVV is the fluorescence intensity with the excitation and emission polarizers oriented in the vertical position (0° from normal), IVH is the fluorescence intensity with the excitation polarizer in the vertical position and the emission polarizer oriented in the horizontal position (90°) relative to the excitation polarizer, G is the monochromator grating factor which is equal to (IHV/IHH), with the first subscript indicating the position of the excitation polarizer and the second subscript indicating position of the emission polarizer. Three separate binding experiments were averaged and fit to a 1:1 binding model using the non-linear regression application in GraphPad Prism version 3.00 (GraphPad Software, San Diego, Calif.).

[2] = target: T2, GFP-RIα (Bos taurus, UniProt P00514); assay: Co-localization with mitochondria-targeted Flag-tagged AKB domain constructs in 10T(1/2) cells (Example 10); format: cell-based, bovine; conditions: mutations of Table 7 in AKB domain of C-terminal 156 residues of mouse D-AKAP2, mitochondria-targeted
T2 construct: Full-length bovine RIα and mouse RIIα were fused with green fluorescent protein (GFP) by subcloning into pEGFPN1; expressed in transfected cells; host or cells: 10T(1/2) cells
Experimental: (§4) To test the ability of the mutations set forth in Table 7 [AKB(dual), AKB(RI), AKB(RII) and AKB(null)] to co-localize with selected PKA isoforms in cells, a flag-tagged AKB domain construct targeted to the mitochondria was prepared using the AKB domain and a mitochondria targeting sequence from D-AKAP1 as set forth in Example 3. The respective mutations were then incorporated into the AKB domain of D-AKAP2 to test for selectivity in the cell. The targeting constructs of the AKB domain were made by fusing the C-terminal 156 residues of mouse D-AKAP2 with the N-terminal mitochondrial-targeting domain of D-AKAP1 (residues 1-30 of D-AKAP1a). After adding a flag tag to the C-terminus, the constructs were sub-cloned into the pCI vector (Promega, Madison, Wis.). The mutations of the AKB domain corresponding to those set forth in Table 7 herein were made with the QuickChange mutagenesis method (Makarova et al. (2000) Biotechniques, 29:970-972). Full-length bovine RIα and mouse RIIα were fused with green fluorescent protein (GFP) by subcloning into pEGFPN1 (Clontech, Palo Alto, Calif.). Equal amounts of the targeting constructs and either GFP-RIα or GFP-RIIα constructs were co-transfected into 10T(1/2) cells using Lipofectamin (Invitrogen, Carlsbad, Calif.). The AKB domain was detected by immuno-staining with monoclonal antibodies against the Flag-tag (Kodak, Rochester, N.Y.) followed by a rhodamine-conjugated secondary antibody (Jackson Lab, Bar Harbor, Me.). The cells were imaged using a radiance confocal microscope (BioRad, Hercules, Calif.).

[3] = target: T3, full-length RIα (Bos taurus, UniProt P00514); assay: Fluorescence anisotropy binding assay (Example 9); parameters: species or system bovine; conditions: compared with the unsubstituted peptide
T3 construct: Full-length bovine RIα was expressed in E. coli 222; made in house; host or cells: E. coli 222
Experimental: as §1, §2, §3

[4] = target: T4, GFP-RIIα (Mus musculus, UniProt P12367); assay: Co-localization with mitochondria-targeted Flag-tagged AKB domain constructs in 10T(1/2) cells (Example 10); format: cell-based; conditions: mutations of Table 7 in AKB domain of C-terminal 156 residues of mouse D-AKAP2, mitochondria-targeted
T4 construct: Full-length bovine RIα and mouse RIIα were fused with green fluorescent protein (GFP) by subcloning into pEGFPN1; expressed in transfected cells; host or cells: 10T(1/2) cells
Experimental: as §4

T2 sequence (P00514 whole entry, the tested form may be a part): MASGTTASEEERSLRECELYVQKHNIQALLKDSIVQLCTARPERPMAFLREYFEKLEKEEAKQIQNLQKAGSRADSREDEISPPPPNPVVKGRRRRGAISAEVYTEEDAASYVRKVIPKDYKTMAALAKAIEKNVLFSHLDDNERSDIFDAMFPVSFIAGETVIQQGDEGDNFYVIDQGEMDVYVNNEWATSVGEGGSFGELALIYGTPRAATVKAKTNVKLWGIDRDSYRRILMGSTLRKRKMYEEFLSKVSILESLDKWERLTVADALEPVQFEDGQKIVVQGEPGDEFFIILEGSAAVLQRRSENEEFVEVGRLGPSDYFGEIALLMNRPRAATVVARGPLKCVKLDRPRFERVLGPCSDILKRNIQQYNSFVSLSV
T3 sequence (P00514 whole entry): as the sequence (P00514 whole entry, the tested form may be a part) above
T4 sequence (P12367 whole entry, the tested form may be a part): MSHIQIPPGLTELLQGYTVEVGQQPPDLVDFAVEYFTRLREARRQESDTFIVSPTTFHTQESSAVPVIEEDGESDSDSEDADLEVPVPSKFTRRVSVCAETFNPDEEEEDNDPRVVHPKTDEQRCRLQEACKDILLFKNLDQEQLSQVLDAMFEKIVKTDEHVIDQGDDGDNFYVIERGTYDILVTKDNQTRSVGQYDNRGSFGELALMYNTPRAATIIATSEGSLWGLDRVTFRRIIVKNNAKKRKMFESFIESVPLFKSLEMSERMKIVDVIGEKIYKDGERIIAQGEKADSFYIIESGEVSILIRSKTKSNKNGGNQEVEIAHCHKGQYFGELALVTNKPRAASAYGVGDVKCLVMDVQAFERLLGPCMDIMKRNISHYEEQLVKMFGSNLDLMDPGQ
T1 sequence (P12367 whole entry): as the sequence (P12367 whole entry, the tested form may be a part) above

| Structure (SMILES) | binding to RIIα, in words [1] | recruitment of GFP-RIα to the mitochondria [2] | binding to RIα, in words [3] | recruitment of GFP-RIIα to the mitochondria [4] | binding to RIIα, in words ([1]; listed as SEQ ID NO:103) | binding to RIα, in words ([3]; listed as SEQ ID NO:103) |
| --- | --- | --- | --- | --- | --- | --- |
| CC[C@H](C)[C@H](NC(=O)[C@H](CCCCN)NC(=O)[C@H](Cc1c[nH]c2ccccc12)NC(=O)[C@H](CC(C)C)NC(=O)[C@H](CC(C)C)NC(=O)[C@H](CCC(=O)O)NC(=O)[C@H](CCC(=O)O)NC(=O)[C@H](CCC(N)=O)NC(=O)[C@H](C)NC(=O)[C@H](CCC(=O)O)NC(=O)[C@H](CC(=O)O)NC(=O)[C@@H](NC(=O)[C@H](CC(N)=O)NC(=O)CNC(=O)[C@H](CCC(N)=O)NC(=O)[C@@H](N)C(C)C)[C@@H](C)O)C(=O)N[C@@H](C)C(=O)N[C@@H](CCCCN)C(=O)N[C@@H](CCSC)C(=O)N[C@H](C(=O)N[C@H](C(=O)N[C@@H](CO)C(=O)N[C@@H](CC(=O)O)C(=O)N[C@H](C(=O)N[C@@H](CCSC)C(=O)N[C@@H](CCC(N)=O)C(=O)N[C@@H](CCC(N)=O)C(=O)N[C@@H](CSC1CC(=O)N(c2ccc3c(c2)C(=O)OC32c3ccc(N(C)C)cc3Oc3cc(N(C)C)ccc32)C1=O)C(N)=O)C(C)C)C(C)C)[C@@H](C)CC (stereo partly shown) [AKB (RII)] (H-VQGNTDEAQEELLWKIAKMIVSDVMQQC(X1)-NH2; N-terminus assumed) | did not affect binding to RIIα | incapable of recruiting GFP-RI | dramatically affected binding to RIα | recruited RII to the mitochondria | – | – |
| CC[C@H](C)[C@H](NC(=O)[C@H](CCCCN)NC(=O)[C@H](Cc1c[nH]c2ccccc12)NC(=O)[C@H](C)NC(=O)[C@H](CC(C)C)NC(=O)[C@H](CCC(=O)O)NC(=O)[C@H](CCC(=O)O)NC(=O)[C@H](CCC(N)=O)NC(=O)[C@H](C)NC(=O)[C@H](CCC(=O)O)NC(=O)[C@H](CC(=O)O)NC(=O)[C@@H](NC(=O)[C@H](CC(N)=O)NC(=O)CNC(=O)[C@H](CCC(N)=O)NC(=O)[C@@H](N)C(C)C)[C@@H](C)O)C(=O)N[C@@H](C)C(=O)N[C@@H](CCCCN)C(=O)N[C@@H](CCSC)C(=O)N[C@H](C(=O)N[C@H](C(=O)N[C@@H](CO)C(=O)N[C@@H](CC(=O)O)C(=O)N[C@H](C(=O)N[C@@H](CCSC)C(=O)N[C@@H](CCC(N)=O)C(=O)N[C@@H](CCC(N)=O)C(=O)N[C@@H](CSC1CC(=O)N(c2ccc3c(c2)C(=O)OC32c3ccc(N(C)C)cc3Oc3cc(N(C)C)ccc32)C1=O)C(N)=O)C(C)C)C(C)C)[C@@H](C)CC (stereo partly shown) [AKB (dual)] (H-VQGNTDEAQEELAWKIAKMIVSDVMQQC(X1)-NH2; N-terminus assumed) | – | able to recruit both GFP-RIα and GFP-RIIα to the mitochondria | – | able to recruit both GFP-RIα and GFP-RIIα to the mitochondria | – | – |
| CC[C@H](C)[C@H](NC(=O)[C@H](CCCCN)NC(=O)[C@H](Cc1c[nH]c2ccccc12)NC(=O)[C@H](C)NC(=O)[C@H](CC(C)C)NC(=O)[C@H](CCC(=O)O)NC(=O)[C@H](CCC(=O)O)NC(=O)[C@H](CCC(N)=O)NC(=O)[C@H](C)NC(=O)[C@H](CCC(=O)O)NC(=O)[C@H](CC(=O)O)NC(=O)[C@@H](NC(=O)[C@H](CC(N)=O)NC(=O)CNC(=O)[C@H](CCC(N)=O)NC(=O)[C@@H](N)C(C)C)[C@@H](C)O)C(=O)N[C@@H](CCC(=O)O)C(=O)N[C@@H](CCCCN)C(=O)N[C@@H](CCSC)C(=O)N[C@H](C(=O)N[C@@H](Cc1c[nH]c2ccccc12)C(=O)N[C@@H](CO)C(=O)N[C@@H](CC(=O)O)C(=O)N[C@H](C(=O)N[C@@H](CCSC)C(=O)N[C@@H](CCC(N)=O)C(=O)N[C@@H](CCC(N)=O)C(=O)N[C@@H](CSC1CC(=O)N(c2ccc3c(c2)C(=O)OC32c3ccc(N(C)C)cc3Oc3cc(N(C)C)ccc32)C1=O)C(N)=O)C(C)C)[C@@H](C)CC (stereo partly shown) [AKB (null)] (H-VQGNTDEAQEELAWKIEKMIWSDVMQQC(X1)-NH2; N-terminus assumed) | could not be detected | could not co-localize either GFP-RIα or RIIα | bound very poorly | could not co-localize either GFP-RIα or RIIα | – | – |
| CC[C@H](C)[C@H](NC(=O)[C@H](CCCCN)NC(=O)[C@H](Cc1c[nH]c2ccccc12)NC(=O)[C@H](C)NC(=O)[C@H](CC(C)C)NC(=O)[C@H](CCC(=O)O)NC(=O)[C@H](CCC(=O)O)NC(=O)[C@@H](N)Cc1ccccc1)C(=O)N[C@@H](C)C(=O)N[C@@H](CCCCN)C(=O)N[C@@H](CCSC)C(=O)N[C@H](C(=O)N[C@@H](Cc1c[nH]c2ccccc12)C(=O)N[C@@H](CO)C(=O)N[C@@H](CC(=O)O)C(=O)N[C@H](C(=O)N[C@@H](Cc1ccccc1)C(=O)N[C@@H](CCC(N)=O)C(=O)N[C@@H](CCC(N)=O)C(=O)N[C@@H](CSC1CC(=O)N(c2ccc3c(c2)C(=O)OC32c3ccc(N(C)C)cc3Oc3cc(N(C)C)ccc32)C1=O)C(N)=O)C(C)C)[C@@H](C)CC (stereo partly shown) [PV-38] (H-FEELAWKIAKMIWSDVFQQC(X1)-NH2; N-terminus assumed) | substantially no binding; also recorded: further disrupting RIIα binding | only localized GFP-RI to the mitochondria | dramatically enhanced binding to RIα | GFP-RII was not localized | considerable reduction in affinity to RIIα | enhanced binding to RIα by a factor of ten |
